Assay results published in US9227971B2, “Pyrazolo[1,5-a]pyrimidine compounds as mTOR inhibitors” (Merck Sharp & Dohme Corp., priority 2010, dated 2016).
Like-named read-outs stand apart in the source and are kept apart here.

Experiments:
[1] = system: phosphorylated 4E-BP1 Thr37/46 (p4E-BP1 Thr37/46), mTORC1 activity, PC3 cells; assay: mTOR target engagement assay, immunofluorescent cell-based, p4E-BP1 Thr37/46 readout (mTORC1 activity); conditions: read-out: p4E-BP1 Thr37/46 IC50
Outline: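 Read-out is fluorescence intensity of immunostained p4E-BP1 Thr37/46 in fixed PC3 cells, fitted to a logistic curve for IC50 with DMSO-only wells as top. Cells had been exposed to serial compound dilutions for ninety minutes at 37° C in 5% FBS medium with 0.25% DMSO.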

[2] = system: phosphorylated AKT Ser473 (pAKT S473), mTORC2 activity, PC3 cells; assay: mTOR target engagement assay, immunofluorescent cell-based, pAKT S473 readout (mTORC2 activity)
Outline: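 After blocking, cells were stained overnight at 4 °C with anti-pAKT S473 antibody, then a fluorescent secondary; inhibition was read as reduced fluorescence intensity.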

[3] = Homo sapiens, PC-3, Table 3-1, PC3 cells
[4] = Homo sapiens, PC-3, PC3 cells, compound treatment ninety minutes at 37° C.
[5] = Homo sapiens, PC-3, Table 6-1, PC3 cells

Q: For `CS(=O)(=O)c1c([C@H]2CC3CC[C@H](C2)N3C(=O)c2cn[nH]n2)nc2c(-c3cnc4ccc(F)cc4c3)cnn2c1N` [Compound 3.177, ((1R,3s,5S)-3-(7-amino-3-(6-fluoroquinolin-3-yl)-6-(methylsulfonyl)pyrazolo[1,5-a]pyrimidin-5-yl)-8-azabicyclo[3.2.1]octan-8-yl)(2H-1,2,3-triazol-4-yl)methanone], which IC50 [1, 3] is on record?
A: 100 to 1000 nM

Q: What about the IC50 [2, 3] of the same compound?
A: 100 to 1000 nM

Q: How did the IC50 ([1]; Homo sapiens, PC-3, PC3 cells) turn out when `CS(=O)(=O)c1c([C@@H]2C[C@H]3CC[C@@H](C2)N3/C(N)=N/C#N)nc2c(-c3ccc(-c4ccccc4)nc3)cnn2c1N` [Compound 8.87, (1R,3s,5S,E)-3-(7-amino-6-(methylsulfonyl)-3-(6-phenylpyridin-3-yl)pyrazolo[1,5-a]pyrimidin-5-yl)-N′-cyano-8-azabicyclo[3.2.1]octane-8-carboximidamide] was run?
A: 100 to 1000 nM

Q: And the IC50 ([2]; Homo sapiens, PC-3, PC3 cells)?
A: 1 to 100 nM

Q: For `CC(=O)c1c([C@@H]2C[C@H]3CC[C@@H](C2)N3C(=O)c2nnc[nH]2)nc2c(-c3ccc([C@H](C)O)cc3)cnn2c1N` [Compound 7.22, 1-(5-((1R,3s,5S)-8-(4H-1,2,4-triazole-3-carbonyl)-8-azabicyclo[3.2.1]octan-3-yl)-7-amino-3-(4-((S)-1-hydroxyethyl)phenyl)pyrazolo[1,5-a]pyrimidin-6-yl)ethanone], which IC50 [1, 4] is on record?
A: 1 to 100 nM

Q: And the IC50 [2, 4]?
A: 1 to 100 nM

Q: For `CC(=O)c1c([C@@H]2C[C@H]3CC[C@@H](C2)N3C(=O)c2nnc[nH]2)nc2c(-c3ccc(-c4ncc[nH]4)c(F)c3)cnn2c1N` [Compound 6.41, 1-(5-((1R,3s,5S)-8-(4H-1,2,4-triazole-3-carbonyl)-8-azabicyclo[3.2.1]octan-3-yl)-7-amino-3-(3-fluoro-4-(1H-imidazol-2-yl)phenyl)pyrazolo[1,5-a]pyrimidin-6-yl)ethanone], which IC50 [1, 5] is on record?
A: 1 to 100 nM

Q: What about the IC50 [2, 5] of the same compound?
A: 1 to 100 nM

Q: What does the source list for `CC(=O)c1c([C@@H]2C[C@H]3CC[C@@H](C2)N3C(=O)c2cn[nH]c2)nc2c(-c3ccc(C(C)(C)O)nc3)cnn2c1N` [Compound 7.12, 1-(5-((1R,3s,5S)-8-(1H-pyrazole-4-carbonyl)-8-azabicyclo[3.2.1]octan-3-yl)-7-amino-3-(6-(2-hydroxypropan-2-yl)pyridin-3-yl)pyrazolo[1,5-a]pyrimidin-6-yl)ethanone]?
A: IC50 [1, 4]: 100 to 1000 nM; IC50 [2, 4]: 100 to 1000 nM

Q: Which IC50 [1, 3] does the source give for `CS(=O)(=O)c1c([C@@H]2C[C@H]3CC[C@@H](C2)N3C(=O)[C@@H]2CCCN2)nc2c(-c3ccc(-c4ccccc4)nc3)cnn2c1N` [Compound 3.206, ((1R,3R,5S)-3-(7-amino-6-(methylsulfonyl)-3-(6-phenylpyridin-3-yl)pyrazolo[1,5-a]pyrimidin-5-yl)-8-azabicyclo[3.2.1]octan-8-yl)((S)-pyrrolidin-2-yl)methanone] here?
A: 1000 to 10000 nM

Q: What about the IC50 [2, 3] of the same compound?
A: 1000 to 10000 nM

Q: Which IC50 [1, 4] does the source give for `Nc1cc([C@@H]2C[C@H]3CC[C@@H](C2)N3C(=O)[C@H]2CCCN2)nc2c(-c3ccc(-c4ccccc4)nc3)cnn12` [Compound 2.19, ((1R,3S,5S)-3-(7-amino-3-(6-phenylpyridin-3-yl)pyrazolo[1,5-a]pyrimidin-5-yl)-8-azabicyclo[3.2.1]octan-8-yl)((R)-pyrrolidin-2-yl)methanone] here?
A: 1000 to 10000 nM

Q: What about the IC50 [2, 4] of the same compound?
A: 100 to 1000 nM

Q: How did the IC50 [1, 3] turn out when `CS(=O)(=O)c1c([C@@H]2C[C@H]3CC[C@@H](C2)N3C(N)=O)nc2c(-c3ccc(-c4ccccc4F)nc3)cnn2c1N` [Compound 3.131, (1R,3s,5S)-3-(7-amino-3-(6-(2-fluorophenyl)pyridin-3-yl)-6-(methylsulfonyl)pyrazolo[1,5-a]pyrimidin-5-yl)-8-azabicyclo[3.2.1]octane-8-carboxamide] was run?
A: 1 to 100 nM

Q: What about the IC50 [2, 3] of the same compound?
A: 1 to 100 nM

Q: For `COc1cc(F)c(-c2ccc(-c3cnn4c(N)c(S(C)(=O)=O)c([C@@H]5C[C@H]6CC[C@@H](C5)N6C(=O)c5nnc[nH]5)nc34)cn2)cc1F` [Compound 3.59, ((1R,3s,5S)-3-(7-amino-3-(6-(2,5-difluoro-4-methoxyphenyl)pyridin-3-yl)-6-(methylsulfonyl)pyrazolo[1,5-a]pyrimidin-5-yl)-8-azabicyclo[3.2.1]octan-8-yl)(4H-1,2,4-triazol-3-yl)methanone], which IC50 [1, 3] is on record?
A: 1 to 100 nM

Q: What about the IC50 [2, 3] of the same compound?
A: 1 to 100 nM

Q: How did the IC50 [1, 3] turn out when `CS(=O)(=O)c1c([C@@H]2C[C@H]3CC[C@@H](C2)N3C(=O)c2nnc(O)[nH]2)nc2c(-c3ccc(-c4ccccc4)nc3)cnn2c1N` [Compound 3.29, ((1R,3s,5S)-3-(7-amino-6-(methylsulfonyl)-3-(6-phenylpyridin-3-yl)pyrazolo[1,5-a]pyrimidin-5-yl)-8-azabicyclo[3.2.1]octan-8-yl)(5-hydroxy-4H-1,2,4-triazol-3-yl)methanone] was run?
A: 100 to 1000 nM

Q: And the IC50 [2, 3]?
A: 100 to 1000 nM

Q: Which results are given for `CC(=O)c1c([C@@H]2C[C@H]3CC[C@@H](C2)N3C(=O)c2nnc[nH]2)nc2c(-c3cnn(-c4ccccc4)c3)cnn2c1N` [Compound 1.1.143, 1-(5-((1R,3s,5S)-8-(4H-1,2,4-triazole-3-carbonyl)-8-azabicyclo[3.2.1]octan-3-yl)-7-amino-3-(1-phenyl-1H-pyrazol-4-yl)pyrazolo[1,5-a]pyrimidin-6-yl)ethanone]?
A: IC50 [1, 4]: 1 to 100 nM; IC50 [2, 4]: 1 to 100 nM

Q: Which results are given for `CC(=O)c1c([C@@H]2C[C@H]3CC[C@@H](C2)N3C(=O)Cc2nnn[nH]2)nc2c(-c3ccc(-c4ccccc4)nc3)cnn2c1N` [Compound 1.1.20, 1-((1R,3s,5S)-3-(6-acetyl-7-amino-3-(6-phenylpyridin-3-yl)pyrazolo[1,5-a]pyrimidin-5-yl)-8-azabicyclo[3.2.1]octan-8-yl)-2-(1H-tetrazol-5-yl)ethanone]?
A: IC50 [1, 4]: 1000 to 10000 nM; IC50 [2, 4]: 100 to 1000 nM

Q: What does the source list for `CC(=O)c1c([C@@H]2C[C@H]3CC[C@@H](C2)N3C(=O)c2nnc[nH]2)nc2c(-c3ccc(C#CC4CC4)nc3)cnn2c1N` [Compound 8.60, 1-(5-((1R,3s,5S)-8-(4H-1,2,4-triazole-3-carbonyl)-8-azabicyclo[3.2.1]octan-3-yl)-7-amino-3-(6-(cyclopropylethynyl)pyridin-3-yl)pyrazolo[1,5-a]pyrimidin-6-yl)ethanone]?
A: IC50 ([1]; Homo sapiens, PC-3, PC3 cells): 100 to 1000 nM; IC50 ([2]; Homo sapiens, PC-3, PC3 cells): 100 to 1000 nM

Q: How did the IC50 [1, 3] turn out when `CS(=O)(=O)c1c([C@@H]2C[C@H]3CC[C@@H](C2)N3C(=O)c2ccc(O)cn2)nc2c(-c3ccc(-c4ccccc4)nc3)cnn2c1N` [Compound 3.16, ((1R,3s,5S)-3-(7-amino-6-(methylsulfonyl)-3-(6-phenylpyridin-3-yl)pyrazolo[1,5-a]pyrimidin-5-yl)-8-azabicyclo[3.2.1]octan-8-yl)(5-hydroxypyridin-2-yl)methanone] was run?
A: 100 to 1000 nM

Q: And the IC50 [2, 3]?
A: 1 to 100 nM

Q: With `CS(=O)(=O)c1c([C@@H]2C[C@H]3CC[C@@H](C2)N3C(=O)c2ncccc2O)nc2c(-c3ccc(-c4ccccc4)nc3)cnn2c1N` [Compound 3.13] as the compound, how does the IC50 [1, 3] read?
A: 100 to 1000 nM

Q: And the IC50 [2, 3]?
A: 100 to 1000 nM

Q: How did the IC50 ([1]; Homo sapiens, PC-3, PC3 cells) turn out when `CS(=O)(=O)c1c([C@@H]2C[C@H]3CC[C@@H](C2)N3C#N)nc2c(-c3ccc(-c4ccccc4)nc3)cnn2c1N` [Compound 8.70, (1R,3s,5S)-3-(7-amino-6-(methylsulfonyl)-3-(6-phenylpyridin-3-yl)pyrazolo[1,5-a]pyrimidin-5-yl)-8-azabicyclo[3.2.1]octane-8-carbonitrile] was run?
A: 1000 to 10000 nM

Q: And the IC50 ([2]; Homo sapiens, PC-3, PC3 cells)?
A: 100 to 1000 nM

Q: What does the source list for `CC(=O)N1[C@@H]2CC[C@H]1C[C@H](c1nc3c(-c4ccc(-c5csc(C)n5)nc4)cnn3c(N)c1S(C)(=O)=O)C2` [Compound 3.200, 1-((1R,3s,5S)-3-(7-amino-6-(methylsulfonyl)-3-(6-(2-methylthiazol-4-yl)pyridin-3-yl)pyrazolo[1,5-a]pyrimidin-5-yl)-8-azabicyclo[3.2.1]octan-8-yl)ethanone]?
A: IC50 [1, 3]: 1000 to 10000 nM; IC50 [2, 3]: 1000 to 10000 nM

Q: `Nc1c(C2CC2)c([C@@H]2C[C@H]3CC[C@@H](C2)N3C(=O)c2nnc[nH]2)nc2c(-c3cnc4c(c3)OCc3cn[nH]c3-4)cnn12` [Compound 8.55] was tested. Which IC50 ([1]; Homo sapiens, PC-3, PC3 cells) did it give?
A: 1000 to 10000 nM

Q: What about the IC50 ([2]; Homo sapiens, PC-3, PC3 cells) of the same compound?
A: 1000 to 10000 nM

Q: Which results are given for `Nc1c(C2CC2)c(C2CC3CCC(C2)N3C(=O)c2nnc(N3CCOCC3)[nH]2)nc2c(-c3ccc(-c4ccccc4)nc3)cnn12` [Compound 8.105, ((1R,3s,5S)-3-(7-amino-6-cyclopropyl-3-(6-phenylpyridin-3-yl)pyrazolo[1,5-a]pyrimidin-5-yl)-8-azabicyclo[3.2.1]octan-8-yl)(5-morpholino-4H-1,2,4-triazol-3-yl)methanone]?
A: IC50 ([1]; Homo sapiens, PC-3, PC3 cells): 1000 to 10000 nM; IC50 ([2]; Homo sapiens, PC-3, PC3 cells): 1000 to 10000 nM

Q: What does the source list for `CS(=O)(=O)c1c([C@@H]2C[C@H]3CC[C@@H](C2)N3C(=O)CO)nc2c(-c3ccc(-c4ccncc4)nc3)cnn2c1N` [Compound 3.65, 1-((1R,3s,5S)-3-(3-(2,4′-bipyridin-5-yl)-7-amino-6-(methylsulfonyl)pyrazolo[1,5-a]pyrimidin-5-yl)-8-azabicyclo[3.2.1]octan-8-yl)-2-hydroxyethanone]?
A: IC50 [1, 3]: 1000 to 10000 nM; IC50 [2, 3]: 1000 to 10000 nM

Q: `Cc1n[nH]c(C(=O)N2[C@@H]3CC[C@H]2C[C@H](c2nc4c(-c5ccc(C6(O)CCC6)nc5)cnn4c(N)c2S(C)(=O)=O)C3)n1` [Compound 7.29, ((1R,3s,5S)-3-(7-amino-3-(6-(1-hydroxycyclobutyl)pyridin-3-yl)-6-(methylsulfonyl)pyrazolo[1,5-a]pyrimidin-5-yl)-8-azabicyclo[3.2.1]octan-8-yl)(3-methyl-1H-1,2,4-triazol-5-yl)methanone] was tested. Which IC50 ([1]; Table 7-2, PC3 cells) did it give?
A: 100 to 1000 nM

Q: And the IC50 ([2]; Table 7-2, PC3 cells)?
A: 100 to 1000 nM
